Source: US20080108655A1, “Drug composition and method for treating malaria and malignancy” (priority 2005, published 2008)

How the values were obtained:
[1] = human, in vivo; cited from earlier work
[2] = human, in vivo; cited from earlier work; remark: listed apart in the source
[3] = tested on: drug-resistant P. falciparum; experiment: in vitro chemosensitization/resistance-reversal (C/RR) potency, strain not stated; type: cell-based
Procedure: (§1) All in vitro studies were 72 hour growth inhibition assays, starting with 0.2% parasitemia, 2% hematocrit under standard culture conditions in 96 well microplates. Growth was quantified using the fluorescence-based assay developed in our lab (Smilkstein et al; Antimicrobial Agents and Chemotherapy 2004;48:1803-1806). EC50 determined by non-linear regression curve fitting (sigmoidal dose-response, variable slope equation) using GraphPad Prism software. Isobolograms and EC50,75 and 90 estimates computed using CalcuSyn software (Biosoft, T. C. Chou).

[4] = tested on: P. falciparum Dd2 (multidrug resistant)
Procedure: as §1
(§2) 2. […] In the following figures, fixed-ratio combinations of 2 drugs are made at the concentrations of each described in the figure legend (Fivelman, Adagu and Warhurst. Antimicrobial Agents and Chemotherapy 2004;48:4097-4102). Then, in quadruplicate, each of these combinations is diluted serially 2-fold, yielding one curve for each starting mixture. The data are expressed using the concentration of the antimalarial of interest on the X axis. […] In each starting combination, an increase of one drug is accompanied by a corresponding decrease in the other. As a result, overlapping curves indicate an additive relationship; a shift to the left, synergy; and a shift to the right, antagonism. • b. One representative isobologram from each of the experiments is included to the right of the figure, showing lines predictive of EC50,75 and 90 if the combinations were additive in effect. Points falling to the lower left of the predictive lines indicate synergy; those on or near the line, additive effects.

[5] = tested on: P. falciparum W2 (chloroquine-resistant); experiment: 72 hour growth inhibition assay, fluorescence-based, strain W2; type: cell-based; conditions: fixed-ratio combinations, isobologram
Procedure: as §1
as §2, with “One representative isobologram from each of the experiments is included to the right of the figure, showing lines predictive of EC50,75 and 90 if the combinations were additive in effect. Points falling to the lower left of the predictive lines indicate synergy; those on or near the line, additive effects.” left out

CQ-resistant P. chabaudi = conditions: mice, drug alone
[6] = tested on: P. falciparum D6 (CQ sensitive, mefloquine resistant); experiment: 72 hour growth inhibition assay, fluorescence-based, strain D6; type: cell-based
Procedure: as §1
as §2, with “One representative isobologram from each of the experiments is included to the right of the figure, showing lines predictive of EC50,75 and 90 if the combinations were additive in effect. Points falling to the lower left of the predictive lines indicate synergy; those on or near the line, additive effects.” left out

[7] = tested on: drug-resistant P. falciparum; conditions: imipramine vs desipramine; amitriptyline vs nortriptyline; cited from earlier work

## CN(C)CCC(c1ccc(Cl)cc1)c1ccccn1 (racemic) [chlorpheniramine]
[1]
  sedation as side effect: consistently causes drowsiness
[2]
  typical serum concentrations in clinical use: < 100 nM
[3]; in vitro
  C/RR potency of the (+/−) and (+) forms compared: equipotent

## Cc1ccccc1C(OCCN(C)C)c1ccccc1 (racemic) [orphenadrine]
[4]; Dd2, resistant to mefloquine
  interaction with mefloquine: synergistic
[4]; Dd2, resistant to quinine
  interaction with quinine: synergistic
[4]; Dd2, fixed-ratio combinations, isobologram
  interaction with CQ: synergistic
[5]
  interaction with CQ: synergistic
CQ-resistant P. chabaudi
  parasitemia at completion of 4 treatment days: decreased parasitemia
[1]
  sedation as side effect: does not typically cause sedation
[6]; D6, resistant to mefloquine
  interaction with mefloquine: synergistic
[6]; D6, fixed-ratio combinations, isobologram
  interaction with CQ: not against CQ sensitive D6
[3]; strains resistant to those drugs
  effect on sensitivity to quinine or mefloquine: increases sensitivity to quinine or mefloquine

## CN(C)CCC(c1ccc(Cl)cc1)c1ccccn1 (single isomer, unassigned; (-)) [(−)CP]
[3]; in vitro
  C/RR activity: active

## CN(C)CCC(c1ccc(Br)cc1)c1ccccn1 (stereo not drawn) [BP, brompheniramine]
[3]; in vitro
  C/RR potency of the (+/−) and (+) forms compared: equipotent

## CN(C)CCC=C1c2ccccc2CCc2ccccc21 [amitriptyline]
[7]
  resistance-reversal potency, dimethylamine vs monomethylamine pair: no substantial difference

## CNCCCN1c2ccccc2CCc2ccccc21 [desipramine]
[2]
  typical serum concentrations in clinical use: 100 to 500 nM
[7]
  resistance-reversal potency, dimethylamine vs monomethylamine pair: no substantial difference

## CN(C)CCCN1c2ccccc2CCc2ccccc21 [imipramine]
[7]
  resistance-reversal potency, dimethylamine vs monomethylamine pair: no substantial difference

## CNCCC=C1c2ccccc2CCc2ccccc21 [nortriptyline]
[7]
  resistance-reversal potency, dimethylamine vs monomethylamine pair: no substantial difference

## CN(C)CCC(c1ccccc1)c1ccccn1 (stereo not drawn) [pheniramine]
[1]
  sedation as side effect: shares sedation as a side effect
[2]
  concentrations achieved in clinical use relative to BP or CP: roughly 20 fold
